The values below are quoted from earlier work in patent US4256727A, “Synthesis and use of diagnostic radio-pharmaceuticals comprising radioactive isotopes of bromine with dyes” (The University of Kentucky Research Foundation, priority 1978, dated 1981).

The conditions of data set [1]: rate at which the drug is cleared from the blood after injection.
The conditions of data set [2]: formulated with propylene glycol and stored at refrigerated temperatures.

Molecules are shown by their SMILES.

For `O=C1OC2(c3cc(I)c(O)c(I)c3Oc3c2cc(I)c(O)c3I)c2c(Cl)c(Cl)c(Cl)c(Cl)c21` [Rose Bengal], in data set [1], the “half life of clearance from the blood” value is 8 to 10 min. The “stability of the product” value in data set [2] was “stable”.
Consider `O=S1(=O)OC(c2cc(Br)c(O)c(Br)c2)(c2cc(Br)c(O)c(Br)c2)c2ccccc21` [bromphenol blue, 4,4'-(3H-2,1,-benzoxathiol-3-ylidene)bis[2,6-dibromophenol]S,S,-dioxide], for which, in data set [1], the “half life of clearance from the blood” value is recorded as 1.5 min.
